Measured values taken from patent publication US11548900B2, “Oxazino-quinazoline and oxazino-quinoline type compound, preparation method and uses thereof” (BEIJING SCITECH-MQ PHARMACEUTICALS LIMITED, priority 2018, dated 2023).

Key:
HER2 kinase = HER2 kinase (Homo sapiens (Human), UniProt P04626); assay: Inhibition of HER2 kinase activity (ULight-labeled PolyGT substrate); assay type: biochemical; conditions: HER2 kinase 10 nM, ATP 10 μM, 2 hours
Method in brief: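 HER2 kinase at 10 nM with 10 μM ATP and 100 nM ULight-PolyGT, 5 min enzyme–compound preincubation, then 2 h reaction at room temperature in the dark. Compounds at 11 3-fold concentrations, 2.5 μM top to 0.042 nM, 1% DMSO, duplicates. TR-FRET 665/615 ratio; IC50 from inhibition versus DMSO and no-compound controls.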

BT474 cells = assay: Inhibition of cell proliferation, BT474 (CCK-8, 72 h); assay type: cell-based
Method in brief: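 BT474 and HCC827 seeded at 10,000 and 3000 cells/well respectively, cultured overnight, then exposed to 10-point 3-fold compound dilutions (top stock 10 mM; 0.25% DMSO final) for 72 h. Viability by CCK-8, OD450; survival normalised to untreated and cell-free blanks, IC50 from curve fit.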

HCC827 cells = assay: Inhibition of cell proliferation, HCC827 (CCK-8, 72 h); assay type: cell-based; conditions: 72 h incubation
Description: The assay for the inhibition of cell proliferation by small molecular compounds was carried out using the method as follows:
1. 600 μL pancreatin was added to a T75 cell culture flask, which was digested in a 37° C. incubator for about 1 min before 5 mL of DMEM complete culture solution was added, blew evenly, transferred to a 15 mL centrifuge tube, and centrifuged at 1000 rpm for 4 min;
2. The supernatant was removed and 5 mL DMEM complete culture solution was added, blew evenly, and 10 μL cell suspension was taken and mixed with 10 μL 0.4% Trypan Blue, and counted using a cell counter;
3. BT474 and HCC827 cell lines were seeded in 96-well plates at a cell density of 10,000 and 3000 cells/well/80 μL, respectively, and cultured overnight. Only sterile water was added to the 36 wells on the periphery of the 96-well plate without adding cells, and only the 60 wells in the center of the 96-well plate were used for cell assays and controls;
4. Dilution of compounds: the compounds were diluted with a 3-fold dilution to make 10 concentrations in total with an initial concentration of 10 mM;
5. 20 μL of different compounds with different concentrations were added to each well, and 20 μL of complete culture solution was added to the remaining wells. The final concentration of DMSO in each well is 0.25%;
6. After 72 h of incubation, 10 μL CCK-8 reagent was added to each well, and incubated at 37° C. for 1-2 h; and the OD value was read at 450 nm;
7. Cell survival rate (%)=[(As−Ab)/(Ac−Ab)]*100%
As: Assay well (medium containing cell, CCK-8, compound)
Ac: Control well (medium containing cell, CCK-8)
Ab: Blank well (CCK-8, medium without cell and compound)
8. The value was imported into Graphpad Prism5 software for the calculation of IC50s (compound concentration at which 50% maximum survival rate is observed).

EGFR kinase = EGFR kinase (Homo sapiens (Human), UniProt P00533); assay: Inhibition of EGFR kinase activity (ULight-labeled JAK-1 (Tyr1023) peptide substrate); assay type: biochemical; conditions: EGFR kinase 0.35 nM, ATP 150 μM, 2 hours
Chain of EGFR kinase (P00533 25-1210): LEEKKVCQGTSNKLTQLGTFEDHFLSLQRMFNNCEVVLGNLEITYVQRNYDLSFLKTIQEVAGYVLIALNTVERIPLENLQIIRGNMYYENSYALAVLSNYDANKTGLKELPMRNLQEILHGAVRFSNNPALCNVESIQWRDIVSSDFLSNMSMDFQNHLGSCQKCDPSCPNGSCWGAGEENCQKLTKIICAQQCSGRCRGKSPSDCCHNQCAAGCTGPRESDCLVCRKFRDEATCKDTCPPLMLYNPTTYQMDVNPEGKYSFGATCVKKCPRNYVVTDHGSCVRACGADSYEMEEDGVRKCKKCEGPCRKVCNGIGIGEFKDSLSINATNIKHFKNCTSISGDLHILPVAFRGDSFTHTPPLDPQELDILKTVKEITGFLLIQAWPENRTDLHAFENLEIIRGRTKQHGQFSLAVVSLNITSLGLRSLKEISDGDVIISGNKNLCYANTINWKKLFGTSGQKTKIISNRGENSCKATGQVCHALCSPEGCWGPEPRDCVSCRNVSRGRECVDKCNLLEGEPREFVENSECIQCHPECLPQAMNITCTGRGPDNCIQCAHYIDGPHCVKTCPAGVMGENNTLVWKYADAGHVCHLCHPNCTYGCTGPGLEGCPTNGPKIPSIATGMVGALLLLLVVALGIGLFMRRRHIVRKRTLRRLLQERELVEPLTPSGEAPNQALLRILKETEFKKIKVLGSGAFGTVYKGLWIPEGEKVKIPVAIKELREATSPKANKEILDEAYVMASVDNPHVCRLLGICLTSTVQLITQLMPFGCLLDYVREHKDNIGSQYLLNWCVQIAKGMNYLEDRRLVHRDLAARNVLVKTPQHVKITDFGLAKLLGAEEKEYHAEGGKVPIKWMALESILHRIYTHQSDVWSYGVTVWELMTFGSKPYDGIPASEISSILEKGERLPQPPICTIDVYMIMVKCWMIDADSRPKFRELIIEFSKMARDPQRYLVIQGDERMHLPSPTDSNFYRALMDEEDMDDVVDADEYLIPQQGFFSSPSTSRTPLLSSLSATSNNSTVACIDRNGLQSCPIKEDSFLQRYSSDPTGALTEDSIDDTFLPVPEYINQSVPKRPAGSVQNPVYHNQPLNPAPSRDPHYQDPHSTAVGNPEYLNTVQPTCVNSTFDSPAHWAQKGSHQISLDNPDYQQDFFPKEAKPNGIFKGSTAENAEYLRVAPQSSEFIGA
Method in brief: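 TR-FRET kinase assay: 0.35 nM EGFR, 150 μM ATP, 100 nM substrate, 2 h at room temperature in the dark after 5 min enzyme-compound preincubation, 1% DMSO. Compounds tested as 11-point 3-fold series, 2.5 μM to 0.042 nM final, duplicate; IC50 from 665/615 nm ratio-based inhibition.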

[1] = Homo sapiens, BT-474, 72 h incubation

Chain of HER2 kinase (P04626 23-1255): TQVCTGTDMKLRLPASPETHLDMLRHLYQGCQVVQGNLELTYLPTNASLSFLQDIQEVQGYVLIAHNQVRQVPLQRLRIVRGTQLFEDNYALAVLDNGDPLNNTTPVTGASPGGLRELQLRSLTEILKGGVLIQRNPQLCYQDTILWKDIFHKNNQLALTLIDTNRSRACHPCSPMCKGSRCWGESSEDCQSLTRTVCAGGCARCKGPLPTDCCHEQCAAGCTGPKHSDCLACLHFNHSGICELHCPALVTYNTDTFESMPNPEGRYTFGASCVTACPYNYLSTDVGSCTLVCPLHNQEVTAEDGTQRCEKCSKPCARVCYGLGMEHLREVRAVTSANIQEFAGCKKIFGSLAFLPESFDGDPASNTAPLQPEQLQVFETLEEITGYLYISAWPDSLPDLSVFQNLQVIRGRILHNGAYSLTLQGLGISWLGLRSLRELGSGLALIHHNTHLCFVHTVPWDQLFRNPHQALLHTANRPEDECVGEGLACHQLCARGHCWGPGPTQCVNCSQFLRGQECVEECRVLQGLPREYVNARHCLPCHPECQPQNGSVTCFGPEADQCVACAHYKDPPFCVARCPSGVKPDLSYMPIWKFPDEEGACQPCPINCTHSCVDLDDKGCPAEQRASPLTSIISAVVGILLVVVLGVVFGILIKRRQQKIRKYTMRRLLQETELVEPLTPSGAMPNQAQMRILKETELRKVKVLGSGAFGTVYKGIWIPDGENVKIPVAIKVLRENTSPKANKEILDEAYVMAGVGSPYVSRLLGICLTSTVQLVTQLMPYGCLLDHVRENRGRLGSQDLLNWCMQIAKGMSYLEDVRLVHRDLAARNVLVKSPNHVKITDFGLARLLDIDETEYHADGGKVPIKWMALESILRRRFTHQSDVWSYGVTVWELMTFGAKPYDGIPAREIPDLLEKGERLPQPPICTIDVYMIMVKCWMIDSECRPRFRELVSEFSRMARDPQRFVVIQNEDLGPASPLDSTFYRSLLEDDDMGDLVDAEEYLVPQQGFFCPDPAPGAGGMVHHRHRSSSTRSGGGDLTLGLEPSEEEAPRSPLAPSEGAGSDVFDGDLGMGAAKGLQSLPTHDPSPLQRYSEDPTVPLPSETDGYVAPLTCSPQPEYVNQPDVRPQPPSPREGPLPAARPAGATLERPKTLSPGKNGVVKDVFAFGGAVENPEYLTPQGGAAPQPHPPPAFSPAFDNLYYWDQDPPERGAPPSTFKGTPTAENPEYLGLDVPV

Row | Structure (SMILES) | IC50 (HER2 kinase) [nM] | IC50 (BT474 cells; [1]) [nM] | IC50 (HCC827 cells; Homo sapiens) [nM] | IC50 (EGFR kinase) [nM] | IC50 (BT474 cells; 72 h incubation) [nM] | IC50 (HCC827 cells) [nM]
1 | COc1ccccc1Oc1ccc(Nc2ncnc3ccc4c(c23)OCCN4C(=O)/C=C/CN(C)C)cc1 [Example 53, (E)-4-(dimethylamino)-1-(10-((4-(2-methoxyphenoxy)phenyl)amino)-2,3-dihydro-4H-[1,4]oxazino[2,3-f]quinazolin-4-yl)but-2-en-1-one] | ≤ 50 | ≤ 50 | 500 to 5000 | ≤ 50 | – | –
2 | CN(C)C/C=C/C(=O)N1CCOc2c1ccc1ncnc(Nc3ccc(Oc4cccnc4)cc3)c21 [Example 54] | ≤ 50 | ≤ 50 | 500 to 5000 | 500 to 5000 | – | –
3 | COc1cccc(Oc2ccc(Nc3ncnc4ccc5c(c34)OCCN5C(=O)/C=C/CN(C)C)cc2)c1 [Example 56, (E)-4-(dimethylamino)-1-(10-((4-(3-methoxyphenoxy)phenyl)amino)-2,3-dihydro-4H-[1,4]oxazino[2,3-f]quinazolin-4-yl)but-2-en-1-one] | ≤ 50 | ≤ 50 | 500 to 5000 | ≤ 50 | – | –
4 | CN(C)C/C=C/C(=O)N1CCOc2c1ccc1ncnc(Nc3ccc(Oc4nccs4)cc3)c21 [Example 57, (E)-4-(dimethylamino)-1-(10-((4-(thiazol-2-yloxy)phenyl)amino)-2,3-dihydro-4H-[1,4]oxazino[2,3-f]quinazolin-4-yl)but-2-en-1-one] | ≤ 50 | ≤ 50 | 500 to 5000 | 50 to 500 | – | –
5 | CN(C)C/C=C/C(=O)N1CCOc2c1ccc1ncnc(Nc3ccc(Oc4ccccc4)c(Cl)c3)c21 [Example 59, (E)-4-(dimethylamino)-1-(10-((3-chloro-4-phenoxyphenyl)amino)-2,3-dihydro-4H-[1,4]oxazino[2,3-f]quinazolin-4-yl)but-2-en-1-one] | ≤ 50 | ≤ 50 | 500 to 5000 | ≤ 50 | – | –
6 | CN(C)C/C=C/C(=O)N1CCOc2c1ccc1ncnc(Nc3ccc(OCc4ccc(F)cc4)cc3)c21 [Example 60, (E)-4-(dimethylamino)-1-(10-((4-((4-fluorobenzyl)oxy)phenyl)amino)-2,3-dihydro-4H-[1,4]oxazino[2,3-f]quinazolin-4-yl)but-2-en-1-one] | ≤ 50 | ≤ 50 | 500 to 5000 | ≤ 50 | – | –
7 | CN(C)C/C=C/C(=O)N1CCOc2c1ccc1ncnc(Nc3ccc(OCc4cccc(F)c4)cc3)c21 [Example 61, (E)-4-(dimethylamino)-1-(10-((4-((3-fluorobenzyl)oxy)phenyl)amino)-2,3-dihydro-4H-[1,4]oxazino[2,3-f]quinazolin-4-yl)but-2-en-1-one] | ≤ 50 | ≤ 50 | > 5000 | ≤ 50 | – | –
8 | CN(C)C/C=C/C(=O)N1CCOc2c1ccc1ncnc(Nc3ccc(OCc4cccc(C(F)(F)F)c4)cc3)c21 [Example 62] | ≤ 50 | – | – | ≤ 50 | 50 to 500 | > 5000
9 | CN(C)C/C=C/C(=O)N1CCOc2c1ccc1ncnc(Nc3ccc(OCc4ccccn4)cc3)c21 [Example 63, (E)-4-(dimethylamino)-1-(10-((4-(pyridin-2-ylmethoxy)phenyl)amino)-2,3-dihydro-4H-[1,4]oxazino[2,3-f]quinazolin-4-yl)but-2-en-1-one] | ≤ 50 | ≤ 50 | 500 to 5000 | 50 to 500 | – | –
10 | CN(C)C/C=C/C(=O)N1CCOc2c1ccc1ncnc(Nc3ccc(OCc4cccs4)cc3)c21 [Example 64, (E)-4-(dimethylamino)-1-(10-((4-(thiophen-2-ylmethoxy)phenyl)amino)-2,3-dihydro-4H-[1,4]oxazino[2,3-f]quinazolin-4-yl)but-2-en-1-one] | ≤ 50 | ≤ 50 | 50 to 500 | 50 to 500 | – | –
11 | CN(C)C/C=C/C(=O)N1CCOc2c1ccc1ncnc(Nc3ccc(OCc4nccs4)cc3)c21 [Example 65, (E)-4-(dimethylamino)-1-(10-((4-(thiazol-2-ylmethoxy)phenyl)amino)-2,3-dihydro-4H-[1,4]oxazino[2,3-f]quinazolin-4-yl)but-2-en-1-one] | ≤ 50 | ≤ 50 | 50 to 500 | ≤ 50 | – | –
12 | CN(C)C/C=C/C(=O)N1CCOc2c1ccc1ncnc(Nc3ccc(SCc4ccccc4)cc3)c21 [Example 66, (E)-4-(dimethylamino)-1-(10-((4-(benzylthio)phenyl)amino)-2,3-dihydro-4H-[1,4]oxazino[2,3-f]quinazolin-4-yl)but-2-en-1-one] | ≤ 50 | ≤ 50 | 500 to 5000 | ≤ 50 | – | –
13 | COCCN(C)C/C=C/C(=O)N1CCOc2c1ccc1ncnc(Nc3ccc(OCc4ccccn4)c(Cl)c3)c21 [Example 119, (E)-1-(10-((3-chloro-4-(pyridin-2-ylmethoxy)phenyl)amino)-2,3-dihydro-4H-[1,4]oxazino[2,3-f]quinazolin-4-yl)-4-((2-methoxyethyl)(methyl)amino)but-2-en-1-one] | ≤ 50 | ≤ 50 | 50 to 500 | – | – | –

Now from value to molecule:

Row | IC50 (HER2 kinase) [nM] | IC50 (BT474 cells; [1]) [nM] | IC50 (HCC827 cells; Homo sapiens) [nM] | IC50 (EGFR kinase) [nM] | IC50 (BT474 cells; 72 h incubation) [nM] | IC50 (HCC827 cells) [nM] | Structure (SMILES)
14 | ≤ 50 | ≤ 50 | 500 to 5000 | ≤ 50 | – | – | CN(C)C/C=C/C(=O)N1CCOc2c1ccc1ncnc(Nc3ccc(Oc4ccccc4)cc3)c21 [Example 44, (E)-4-(dimethylamino)-1-(10-((4-phenoxyphenyl)amino)-2,3-dihydro-4H-[1,4]oxazino[2,3-f]quinazolin-4-yl)but-2-en-1-one]
15 | ≤ 50 | ≤ 50 | 50 to 500 | ≤ 50 | – | – | CN(C)C/C=C/C(=O)N1CCOc2c1ccc1ncnc(Nc3ccc(OCc4ccccn4)c(Cl)c3)c21 [Example 46, (E)-1-(10-((3-chloro-4-(pyridin-2-ylmethoxy)phenyl)amino)-2,3-dihydro-4H-[1,4]oxazino[2,3-f]quinazolin-4-yl)-4-(dimethylamino)but-2-en-1-one]
16 | ≤ 50 | ≤ 50 | 500 to 5000 | ≤ 50 | – | – | Cc1cccc(Oc2ccc(Nc3ncnc4ccc5c(c34)OCCN5C(=O)/C=C/CN(C)C)cc2)c1 [Example 47, (E)-4-(dimethylamino)-1-(10-((4-(m-tolyloxy)phenyl)amino)-2,3-dihydro-4H-[1,4]oxazino[2,3-f]quinazolin-4-yl)but-2-en-1-one]
17 | ≤ 50 | 50 to 500 | 500 to 5000 | ≤ 50 | – | – | CN(C)C/C=C/C(=O)N1CCOc2c1ccc1ncnc(Nc3ccc(Oc4cccc(Cl)c4)cc3)c21 [Example 48, (E)-4-(dimethylamino)-1-(10-((4-(3-chlorophenoxy)phenyl)amino)-2,3-dihydro-4H-[1,4]oxazino[2,3-f]quinazolin-4-yl)but-2-en-1-one]
18 | ≤ 50 | ≤ 50 | 50 to 500 | ≤ 50 | – | – | CN(C)C/C=C/C(=O)N1CCOc2c1ccc1ncnc(Nc3ccc(Oc4cccc(F)c4)cc3)c21 [Example 49, (E)-4-(dimethylamino)-1-(10-((4-(3-fluorophenoxy)phenyl)amino)-2,3-dihydro-4H-[1,4]oxazino[2,3-f]quinazolin-4-yl)but-2-en-1-one]
19 | ≤ 50 | ≤ 50 | 500 to 5000 | ≤ 50 | – | – | CN(C)C/C=C/C(=O)N1CCOc2c1ccc1ncnc(Nc3ccc(Oc4ccccc4F)cc3)c21 [Example 50, (E)-4-(dimethylamino)-1-(10-((4-(2-fluorophenoxy)phenyl)amino)-2,3-dihydro-4H-[1,4]oxazino[2,3-f]quinazolin-4-yl)but-2-en-1-one]
20 | ≤ 50 | ≤ 50 | 500 to 5000 | ≤ 50 | – | – | CN(C)C/C=C/C(=O)N1CCOc2c1ccc1ncnc(Nc3ccc(Oc4ccc(F)cc4)cc3)c21 [Example 51, (E)-4-(dimethylamino)-1-(10-((4-(4-fluorophenoxy)phenyl)amino)-2,3-dihydro-4H-[1,4]oxazino[2,3-f]quinazolin-4-yl)but-2-en-1-one]
